Patent US12115152B2, “Pan-RAF kinase inhibitor and use thereof” (HEFEI INSTITUTES OF PHYSICAL SCIENCE, CHINESE ACADEMY OF …, priority 2019, dated 2024)

What was measured:
Format in all cases: cell-based
[1] = Effect on proliferation of cells, Cell Titer-Glo, 72 hours; details: Mus musculus, BaF3 cells
Method: The compounds of the present invention were tested for their effect on growth of cancer cells (Table 2), to further evaluate the compounds herein for their inhibitory effect on proliferation of cancer cells and their selectivity in inhibiting proliferation of cancer cells. […]
(§1) In the example, solutions of the test compound in DMSO at different concentrations (0.000508 μM, 0.00152 μM, 0.00457 μM, 0.0137 μM, 0.0411 μM, 0.123 μM, 0.370 μM, 1.11 μM, 3.33 μM, 10 μM) was added to the above cells respectively. The cells were incubated for 72 hours. The number of viable cells was detected with a Cell Titer-Glo (Promega, USA) Cell Viability Assay Kit by quantifying the ATP in viable cells. The values of GI50 (unit) of the compounds of the present invention against each of the test cells were determined.

[2] = test system: colorectal cancer cell COLO205 (expressing BRAF-V600E mutant kinase); experiment: Effect on proliferation of cancer cells, Cell Titer-Glo, 72 hours; details: Homo sapiens, COLO 205
Method: (§2) The compounds of the present invention were tested for their effect on growth of cancer cells (Table 2), to further evaluate the compounds herein for their inhibitory effect on proliferation of cancer cells and their selectivity in inhibiting proliferation of cancer cells.
(§3) The cells were incubated for 72 hours. The number of viable cells was detected with a Cell Titer-Glo (Promega, USA) Cell Viability Assay Kit by quantifying the ATP in viable cells. The values of GI50 (unit) of the compounds of the present invention against each of the test cells were determined.

[3] = test system: melanoma cell A375 (expressing BRAF-V600E mutant kinase); experiment: as above; details: Homo sapiens, A-375
Method: as §2, §3

[4] = test system: mouse BaF3-FL-BRAF-V600E (stably expressing full-length BRAF-V600E mutant kinase); experiment: as above
Method: as §2, §3

[5] = test system: human acute leukemia cell NB4 (expressing KRAS-A18D mutant kinase); experiment: as above; details: NB-4
Method: as §2
(§4) The above-mentioned BaF3-FL-BRAF-V600E mutant cell line was constructed by the method as follows. The sequence of human full-length BRAF-V600E mutant kinase region was amplified by PCR, inserted into a MSCV-Puro vector (purchased from Clontech), and stably transfected into mouse BaF3 cells by the retroviral method, and the growth factor IL-3 was removed. Eventually, a cell line dependent on a full-length BRAF-V600E protein having various mutation transferred was obtained.
as §1

[6] = test system: human acute leukemia cell OCI-AML-3 (expressing NRAS-Q61L mutant kinase); experiment: as above; details: OCI-AML-3 cells
Method: as §2, §4, §1

COCCOc1ccncc1-c1cnn(-c2cc(NC(=O)c3cccc(C(C)(C)C#N)c3)ccc2C)c1 [Example 159, 3-(2-cyanoprop-2-yl)-N-(3-(4-(4-(2-methoxyethoxy)pyrid-3-yl)-1H-pyrazol-1-yl)-4-methylphenyl)benzamide]
GI50 [1]: 5200 nM
GI50 [2]: 36 nM
GI50 [3]: 22 nM
GI50 [4]: 6.6 nM
GI50 [5]: 160 nM
GI50 [6]: 23 nM

Cc1ccc(NC(=O)c2cccc(C(C)(C)C#N)c2)cc1-n1cc(-c2cncc(N3CCNCC3)c2)cn1 [Example 163, 3-(2-cyanoprop-2-yl)-N-(4-methyl-3-(4-(5-(piperizan-1-yl)pyrid-3-yl)1H-pyrazol-1-yl)phenyl)benzamide]
GI50 [1]: 1600 nM
GI50 [2]: 39 nM
GI50 [3]: 160 nM
GI50 [4]: 18 nM
GI50 [5]: 44 nM
GI50 [6]: 10 nM

Cc1ccc(NC(=O)c2cccc(C(C)(C)C#N)c2)cc1-n1cc(-c2cnccc2OCCCCO)cn1 [Example 165, 3-(2-cyanoprop-2-yl)-N-(3-(4-(4-(4-hydroxybutoxy)pyrid-3-yl)-1H-pyrazol-1-yl)-4-methylphenyl)benzamide]
GI50 [1]: 1800 nM
GI50 [2]: 190 nM
GI50 [3]: 40 nM
GI50 [4]: < 0.3 nM
GI50 [5]: 75 nM
GI50 [6]: 14 nM

Cc1ccc(NC(=O)c2cccc(C(F)(F)F)c2)cc1-n1cc(-c2cncc(N3CCNCC3)c2)cn1 [Example 164, N-(4-methyl-3-(4-(5-(piperizan-1-yl)pyrid-3-yl)-1H-pyrazol-1-yl)phenyl)-3-(trifluoromethyl)benzamide]
GI50 [1]: 1600 nM
GI50 [2]: 71 nM
GI50 [3]: 120 nM
GI50 [4]: 4 nM
GI50 [5]: 35 nM
GI50 [6]: 9.1 nM

Cc1ccc(NC(=O)c2cccc(C(F)(F)F)c2)cc1-n1cc(-c2cnccc2OCCCCO)cn1 [Example 166, N-(3-(4-(4-(4-hydroxybutoxy)pyrid-3-yl)-1H-pyrazol-1-yl)-4-methylphenyl)-3-(trifluoromethyl)benzamide]
GI50 [1]: 2600 nM
GI50 [2]: 94 nM
GI50 [3]: 77 nM
GI50 [4]: 1 nM
GI50 [5]: 69 nM
GI50 [6]: 19 nM

Cc1ccc(NC(=O)c2cccc(C(C)(C)C#N)c2)cc1-n1cc(-c2cncc(-c3ccncc3)c2)cn1 [Example 5, N-(3-(4-([3,4′-bipyridyl]-5-yl)-1H-pyrazol-1-yl)-4-methylphenyl)-3-(2-cyanoprop-2-yl)benzamide]
GI50 [1]: 510 nM
GI50 [2]: 17 nM
GI50 [3]: 19 nM
GI50 [4]: 1.9 nM

Cc1ccc(NC(=O)c2cccc(C(C)C#N)c2)cc1-n1cc(-c2cncc(-c3ccncc3)c2)cn1 (stereo not drawn) [Example 6, N-(3-(4-([3,4′-bipyridyl]-5-yl)-1H-pyrazol-1-yl)-4-methylphenyl)-3-(1-cyanoethyl)benzamide]
GI50 [1]: 780 nM
GI50 [2]: 53 nM
GI50 [3]: 57 nM
GI50 [4]: 7.5 nM

Cc1ccc(NC(=O)c2cccc(C(F)(F)F)c2)cc1-n1cc(-c2cnccc2OCCCO)cn1 [Example 162, N-(3-(4-(4-(3-hydoxypropoxy)pyrid-3-yl)-1H-pyrazol-1-yl)-4-methylphenyl)-3-(trifluoromethyl)benzamide]
GI50 [1]: 5000 nM
GI50 [2]: 39 nM
GI50 [3]: 32 nM
GI50 [4]: 3.9 nM
GI50 [5]: 61 nM
GI50 [6]: 11 nM

Cc1ccc(NC(=O)c2cccc(C(F)(F)F)c2)cc1-n1cc(-c2cncc(OCC3CCOC3)c2)cn1 (stereo not drawn) [Example 66, N-(4-methyl-3-(4-(5-((tetrahydrofuran-3-yl)methoxy)pyrid-3-yl)-1H-pyrazol-1-yl)phenyl)-3-(trifluoromethyl)benzamide]
GI50 [1]: 3000 nM
GI50 [2]: 230 nM
GI50 [3]: 71 nM
GI50 [4]: 18 nM

Cc1ccc(NC(=O)c2cccc(C(C)(C)C#N)c2)cc1-n1cc(-c2cnccc2OCCCO)cn1 [Example 161, 3-(2-cyanoprop-2-yl)-N-(3-(4-(4-(3-hydorxypropoxy)pyrid-3-yl)-1H-pyrazol-1-yl)-4-methylphenyl)benzamide]
GI50 [1]: 3600 nM
GI50 [2]: 55 nM
GI50 [3]: 14 nM
GI50 [4]: 2.3 nM
GI50 [5]: 95 nM
GI50 [6]: 12 nM
